Laboratory results as given in patent US20120184438A1, “FORMULATIONS” (SYNGENTA CROP PROTECTION, LLC, priority 2009, published 2012).

Test: Pesticide (A.I.) solubility in several solvents at 25° C.
Format: physicochemical
Conditions: not given
Procedure: A glass vial was approximately one eighth filled with an active ingredient [Al] and then solvent [in this example, Compound Number 1 from Table 1] was added until the vial was approximately one third full. The resultant sample was mixed with a Whirlimixer™ and was then stored at 25° C. The sample was checked every few days; if there was no solid active ingredient present then additional active ingredient was added; if there was no liquid remaining then additional solvent was added. This procedure was repeated until the sample had equilibrated for 4 weeks following the final addition of either active ingredient or solvent. The supernatent liquid layer was then analysed by gas chromatography [except for 4-hydroxy-3-[2-(2-methoxyethoxymethyl)-6-trifluoromethylpyridine-3-carbonyl]-bicyclo[3.2.1]oct-3-en-2-one which was analysed by liquid chromatography] for active ingredient concentration; the results are given in Table 2:
(§1) This Example illustrates that Compound Number 1 is unusually effective at dissolving pesticides given that it has a water solubility which is low.

| Compound | A.I. Solubility at 25° C., Azoxystrobin | A.I. Solubility at 25° C., Cyproconazole |
| --- | --- | --- |
| Trimethylbenzene | 1.7 % w/w | 5.8 % w/w |
| C[S+](C)[O-] [DMSO] | 32.1 % w/w | 55.5 % w/w |

Test: Aqueous solubility of solvents
Format: physicochemical
Conditions: not given
Description: as §1

| Compound | Aqueous solubility |
| --- | --- |
| Trimethylbenzene | 0.1 % w/w |

Same assay, conditions: solubility of the solvent in water

| Compound | Aqueous solubility |
| --- | --- |
| OCC1CCCO1 (stereo not drawn) [Tetrahydrofurfuryl alcohol] | 100 % w/w |
| C[S+](C)[O-] [DMSO] | 100 % w/w |
| CCN(CC)C(=O)c1cccc(C)c1 [Compound No. 1] | 0.1 % w/w |

The remaining lines, values ahead:

| Aqueous solubility | Compound |
| --- | --- |
| 0.1 % w/w | CCCCOC(=O)c1ccccc1 [n-Butylbenzoate] |
| 100 % w/w | CN1CCCC1=O [N-Methyl pyrrolidone] |
| 0.030 % w/w | CC(C)[C@@H]1CC[C@@H](C)CC1=O [Menthone] |
| 0.003 % w/w | CC(=O)O[C@@H]1C[C@H]2CC[C@]1(C)C2(C)C (racemic) [Isobornyl acetate] |

Test: Solubility of agrochemical active ingredients in Compound No. 1 (equilibrated 4 weeks at 25° C., supernatant analysed by GC/LC)
Format: physicochemical
Conditions: solvent Compound No. 1 (DEET), 4 weeks equilibration
Procedure: The resultant sample was mixed with a Whirlimixer™ and was then stored at 25° C. The sample was checked every few days; if there was no solid active ingredient present then additional active ingredient was added; if there was no liquid remaining then additional solvent was added. This procedure was repeated until the sample had equilibrated for 4 weeks following the final addition of either active ingredient or solvent.

| Compound | Solubility in Compound No. 1 at 25° C. |
| --- | --- |
| CO/C=C(/C(=O)OC)c1ccccc1Oc1cc(Oc2ccccc2C#N)ncn1 [Azoxystrobin] | 11.3 % w/w |
| COCCOCc1nc(C(F)(F)F)ccc1C(=O)C1=C(O)C2CCC(C2)C1=O (stereo not drawn) [4-Hydroxy-3-[2-(2-methoxyethoxymethyl)-6-trifluoromethylpyridine-3-carbonyl]-bicyclo[3.2.1]oct-3-en-2-one] | 24.7 % w/w |
| CC(C1CC1)C(O)(Cn1cncn1)c1ccc(Cl)cc1 (stereo not drawn) [Cyproconazole] | 33.4 % w/w |
